Results taken from BindingDB's records for doi:10.1016/j.ejmech.2014.11.002 (Universitat Rovira I Virgili, 2015).
pKi: −log10 of the molar value.

How the values were obtained:
[1] = biological target: Cytosolic beta-glucosidase (Bos taurus); assay: Inhibition of bovine liver beta-glucosidase at pH 5.5 incubated for 10 to 30 mins using beta-D-glycopyranoside substrate by spectrophotometry
[2] = biological target: Cytosolic beta-glucosidase (Bos taurus); assay: Inhibition of bovine liver beta-glucosidase at pH 7.3 incubated for 10 to 30 mins using beta-D-glycopyranoside substrate by spectrophotometry

pKi [1]	pKi [2]	SMILES
4.18	4.95	OC[C@H]1O[C@@H]2N=C(SCCCCCCCCCCCCCCCCF)O[C@@H]2[C@@H](O)[C@@H]1O
4.35	4.58	COC(=O)CCCCCCCCCCCCCCCSC1=N[C@H]2O[C@H](CO)[C@@H](O)[C@H](O)[C@H]2O1
